Measurements published in BindingDB's records for doi:10.1021/acschembio.6b00382 (Institut de Ge´ne´tique et de Biologie Mole´culaire et …, 2016).

Columns and labels:
Settings in all cases: pH 7
[1] = molecular target: Aldo-keto reductase family 1 member B10 [K125R,V301L] (Homo sapiens, UniProt O60218, K125R/V301L); test: IC50-Activity Assay (AR)
Protocol: (§1) The IC50-activity assays were carried out on the basis of the quantification of the NADPH consumption that takes place when the enzyme catalyzes the conversion of the aldehyde substrate into the alcohol product. […] The final reaction volume was 600 μL per reaction. All compounds were dissolved in dimethyl sulfoxide (DMSO), and the corresponding solution was added to the cell to be assayed in a final concentration of 2% (v/v) DMSO and incubated for 5 min at 25 °C prior to the addition of the substrate. The reaction was initiated by the addition of 1 mM glyceraldehyde, and the decrease in optical density at 340 nm was monitored for at least 3 min at 25 °C in a UV−vis spectrophotometer (Cary 400 Bio (Varian)).

[2] = molecular target: T1, Aldo-keto reductase family 1 member B10 (Homo sapiens, UniProt O60218); test: IC50-Activity Assay (AR)
Protocol: as §1

[3] = molecular target: Aldo-keto reductase family 1 member B1 (Homo sapiens, UniProt P15121); test: IC50-Activity Assay (AR)
Protocol: as §1

[4] = molecular target: T1, Aldo-keto reductase family 1 member B10; test: IC50-Activity Assay (AKR1B10)
Protocol: as §1, with “60” for “1”, “glyceraldehyde and 0.2 mM pyridine-3-aldehyde,” for “glyceraldehyde,”, “opticaldensity” for “optical density”

T1 sequence (O60218 whole entry): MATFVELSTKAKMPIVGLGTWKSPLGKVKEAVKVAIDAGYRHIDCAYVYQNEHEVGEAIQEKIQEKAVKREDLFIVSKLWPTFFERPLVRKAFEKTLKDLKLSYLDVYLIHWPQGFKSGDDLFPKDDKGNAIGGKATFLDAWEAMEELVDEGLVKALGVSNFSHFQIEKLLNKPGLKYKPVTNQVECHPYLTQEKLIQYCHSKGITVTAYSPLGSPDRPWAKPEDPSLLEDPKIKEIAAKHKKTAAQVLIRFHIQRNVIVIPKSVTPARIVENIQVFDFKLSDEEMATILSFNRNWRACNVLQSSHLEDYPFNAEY
Sequence of Aldo-keto reductase family 1 member B10 [K125R,V301L] (O60218 whole entry K125R/V301L): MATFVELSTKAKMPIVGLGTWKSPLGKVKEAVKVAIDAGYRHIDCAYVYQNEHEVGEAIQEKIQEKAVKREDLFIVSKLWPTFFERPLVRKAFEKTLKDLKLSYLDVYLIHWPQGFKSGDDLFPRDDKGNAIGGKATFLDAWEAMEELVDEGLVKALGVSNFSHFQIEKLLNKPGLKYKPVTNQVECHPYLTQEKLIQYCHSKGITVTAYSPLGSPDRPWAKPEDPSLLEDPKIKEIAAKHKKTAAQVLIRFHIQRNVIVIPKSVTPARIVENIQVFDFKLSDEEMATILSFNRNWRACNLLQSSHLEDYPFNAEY

SMILES	IC50 [1] [µM]	IC50 [2] [µM]	IC50 [3] [µM]	IC50 [4] [µM]
COc1c(Br)c(Br)c(Br)c(Br)c1Cn1c(=O)ccn(CC(=O)O)c1=O [2-(2,4-dioxo-3-(2,3,4,5-tetrabromo-6-methoxybenzyl)-3,4-dihydropyrimidin-1(2H)-yl)acetic acid]	0.45			
O=C(O)COc1cc(Cl)ccc1C(=O)NCc1c(Br)cc(Br)cc1Br [2-(5-chloro-2-((2,4,6-tribromobenzyl)carbamoyl)phenoxy)acetic acid]	1	1	21.4	0.43
O=C(O)COc1cc(Cl)ccc1C(=O)NCc1c(Br)c(Br)c(Br)c(Br)c1Br [2-(5-chloro-2-(((perbromophenyl)methyl)carbamoyl)phenoxy)acetic acid]	0.08	0.08	21.7	0.03
O=C(O)COc1cc(Cl)ccc1C(=O)NCc1ccc(Br)cc1F [IDD388]	4.4	4.4		2.7
O=C(O)COc1cc(F)ccc1C(=S)NCc1ccc(Br)cc1F [IDD594]			0.003	
O=C(O)COc1cc(Cl)ccc1C(=O)NCc1ccc(Br)cc1 [MK181]	4.5	4.5		3.7
O=C(O)COc1cc(Cl)ccc1C(=O)NCc1c(F)c(F)c(Br)c(F)c1F [MK319]	7	7		3.4
COc1ccc2c(C(=S)N(C)CC(=O)O)cccc2c1C(F)(F)F [N-{[6-methoxy-5-(trifluoromethyl)naphthalen-1-yl]carbonothioyl}-N-methylglycine]				0.0012
CC1=C(CC(=O)O)c2cc(F)ccc2/C1=C\c1ccc([S@@+](C)[O-])cc1 [cis-5-Fluoro-2-methyl-1-((p-methylsulfinyl)benzylidene)indene-3-acetic acid]	2.69			
